Our source for the TGI values is PubChem BioAssay (NCI).

Some test systems named below: ACHN renal; UACC-257 melanoma; DU-145 prostate; SK-MEL-5 melanoma; SK-MEL-2 melanoma.
What all share (assay): NCI anticancer screen, dose series, 48 h

SMILES strings stand for the structures.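 Following 48 hours of exposure in 96-well plates, responses at five concentrations were used to interpolate endpoints linearly. At the TGI there is no net growth.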 Where a SMILES comes first, the peptide text is derived from it. The star is where a group is joined. Boc = CC(C)(C)OC(=O)*; Bn = c1ccc(C*)cc1

Turning to `CC(C)(C)OC(=O)NC(Cc1ccc(OCc2ccccc2)cn1)C(N)=O` (configuration not stated), the TGI with ACHN renal is more than 100 µM; with UACC-257 melanoma, more than 100 µM; with DU-145 prostate, more than 100 µM; in the test with SK-MEL-5 melanoma, 94.2 µM.

On to `COC(=O)/C(C#N)=C(/NCc1ccccc1)Nc1ccccc1`, for which the TGI in the test on ACHN renal, with UACC-257 melanoma, with SK-MEL-2 melanoma, with DU-145 prostate and in the test on SK-MEL-5 melanoma was more than 100 µM in each case.

With `Cc1cc(C)nc(NS(=O)(=O)c2ccc(Nc3nnc(/C=C/c4c(O)ccc5ccccc45)c(=O)n3N)cc2)n1`, the TGI with ACHN renal was 53.8 µM; in the test on DU-145 prostate, more than 100 µM.

As for `O=C1CC2(CCNCC2)C(=O)N1N1CCCCC1`, the TGI in the test with ACHN renal, in the test on UACC-257 melanoma, in the test on SK-MEL-2 melanoma, in the test on DU-145 prostate and with SK-MEL-5 melanoma was more than 100 µM each time.

Consider `N#CCCN(CCCN(C(=O)Nc1ccc(NC(=O)N(CCCN(CCC#N)C(N)=O)c2ccccc2)cc1)c1ccccc1)C(N)=O`, for which the TGI with ACHN renal, in the test with UACC-257 melanoma, with SK-MEL-2 melanoma, with DU-145 prostate and in the test with SK-MEL-5 melanoma was more than 100 µM in each case.

Take `CC(C)(C)CN1[C@@H]2CCCC[C@H]2N(CC(C)(C)C)P1(=O)C(O)/C=C/c1ccccc1` (some centres not stated): the TGI was 93.7 µM with ACHN renal; more than 100 µM with UACC-257 melanoma; 93.1 µM in the test with SK-MEL-2 melanoma; more than 100 µM in the test on DU-145 prostate; 38.9 µM in the test on SK-MEL-5 melanoma.

In the case of `CN(C)c1cccc(/C=C(\C#N)c2ccccc2)c1`, the TGI in the test with ACHN renal is more than 100 µM; with UACC-257 melanoma, more than 71.7 µM; in the test with SK-MEL-2 melanoma it was 47.5 µM; in the test with DU-145 prostate, 33.5 µM; with SK-MEL-5 melanoma, 21 µM.

As for `COC(=O)/C=C/c1ccc2c(c1)[C@H](C(=O)OC)[C@@H](c1ccc(O)cc1)O2`, the TGI in the test with ACHN renal was more than 100 µM; in the test with UACC-257 melanoma it was more than 100 µM; in the test on SK-MEL-2 melanoma, 31.2 µM; in the test on DU-145 prostate, more than 100 µM; in the test on SK-MEL-5 melanoma it was 28.1 µM.

For the compound `C=C(C)CCN(C(=O)OC(C)(C)C)c1cc(C(C)C)co1`, the TGI in the test with ACHN renal, in the test on UACC-257 melanoma, in the test with SK-MEL-2 melanoma, with DU-145 prostate and in the test with SK-MEL-5 melanoma was more than 100 µM each time.

As to `COc1cccc(N2C(=O)C3c4[nH]c5ccc(C)cc5c4C4CCC(C)CC4C3C2=O)c1` (configuration not stated), the TGI in the test with ACHN renal, in the test with UACC-257 melanoma, in the test with SK-MEL-2 melanoma, with DU-145 prostate and in the test with SK-MEL-5 melanoma was more than 100 µM throughout.

As to `COC(=O)C1Cc2c([nH]c3ccccc23)-c2[nH]c3ccccc3c2CC(NC(C)=O)C(=O)NCC(=O)NCC(=O)N1` (configuration not stated), the TGI in the test on ACHN renal, in the test on UACC-257 melanoma, in the test on SK-MEL-2 melanoma, with DU-145 prostate and with SK-MEL-5 melanoma was more than 100 µM each time.

As for `COc1ccc2cc(/C=N\NC(=O)Nc3ccc([N+](=O)[O-])cc3)ccc2c1`, the TGI in the test with ACHN renal was found to be 19.8 µM; in the test on UACC-257 melanoma, 20.7 µM; with SK-MEL-2 melanoma, 20.5 µM; in the test on DU-145 prostate, 14 µM; in the test with SK-MEL-5 melanoma, 17.7 µM.

For `COc1ccc2oc(=O)c(-c3csc(-c4ccccc4)n3)cc2c1`, the TGI in the test on ACHN renal, in the test with UACC-257 melanoma, with SK-MEL-2 melanoma, in the test on DU-145 prostate and in the test on SK-MEL-5 melanoma was more than 100 µM throughout.

Turning to `Oc1ccccc1-c1n[nH]c(-c2ccccc2O)n1`, the TGI with ACHN renal, with SK-MEL-2 melanoma, in the test with DU-145 prostate and with SK-MEL-5 melanoma was more than 100 µM throughout.

As to `O=C(/N=C1/OC(CN2CCOCC2)CN1C(=O)Nc1ccccc1)Nc1ccccc1` (configuration not stated), the TGI with ACHN renal, in the test on UACC-257 melanoma, in the test on SK-MEL-2 melanoma, in the test on DU-145 prostate and in the test with SK-MEL-5 melanoma was more than 100 µM in each case.

`COC(=O)C1=C(C(=O)OC)C(OO)(c2ccccc2)OC1=O` (configuration not stated): the TGI with ACHN renal, with UACC-257 melanoma, in the test with SK-MEL-2 melanoma, in the test with DU-145 prostate and in the test with SK-MEL-5 melanoma was more than 100 µM throughout.

`O=[N+]([O-])c1cc2ccc1OCc1cccc(n1)COc1ccc(cc1[N+](=O)[O-])C=NCCCCCCCCN=C2`: the TGI in the test on ACHN renal, in the test on UACC-257 melanoma, with SK-MEL-2 melanoma, in the test on DU-145 prostate and with SK-MEL-5 melanoma was more than 100 µM in each case.

For the compound `COC(=O)/C=C/C(=O)Nc1cc(Cl)c(Cl)cc1CC(=O)N(C)[C@H]1CCCC[C@@H]1N1CCCC1`, the TGI in the test with ACHN renal is 14.6 µM; in the test with UACC-257 melanoma, 13 µM; in the test with SK-MEL-2 melanoma, 22 µM; in the test on DU-145 prostate, 19.9 µM; with SK-MEL-5 melanoma it was 22.9 µM.

On to `Cc1ccc(C2=Nn3c(nc4sc5c(c4c3=O)CCCC5)SC2)cc1`, for which the TGI in the test with ACHN renal, in the test on UACC-257 melanoma, with DU-145 prostate and in the test on SK-MEL-5 melanoma was more than 100 µM in each case.

With `O=C(/C=C/c1ccccc1Br)c1ccccc1`, the TGI was found to be 3.73 µM in the test with ACHN renal; 24.1 µM in the test on UACC-257 melanoma; 31.3 µM with SK-MEL-2 melanoma; 20.1 µM in the test on DU-145 prostate; 22.6 µM with SK-MEL-5 melanoma.

`COC(=O)C(CC(C)C)NC(=O)CNC(=O)C(Cc1ccc(OCc2ccccc2)cc1)NC(=O)C(COCc1ccccc1)NC(=O)OC(C)(C)C` (configuration not stated) (Boc-S(Bn)Y(Bn)GL-OMe; configuration not given here): the TGI in the test with ACHN renal, with DU-145 prostate and with SK-MEL-5 melanoma was more than 100 µM in each case.

In the case of `COc1ccc(C(c2cc(OC)c(OC)c(OC)c2)N2C(=O)CCC2C(=O)O)cc1` (configuration not stated), the TGI in the test with ACHN renal, in the test on UACC-257 melanoma, in the test with SK-MEL-2 melanoma, in the test on DU-145 prostate and with SK-MEL-5 melanoma was more than 100 µM each time.

As for `Cc1ccc(/C=C2\CCCCCC2=O)cc1`, the TGI with ACHN renal, in the test with UACC-257 melanoma, in the test on SK-MEL-2 melanoma, in the test with DU-145 prostate and in the test on SK-MEL-5 melanoma was more than 100 µM throughout.

For the compound `O=C1OC(C2Cc3ccc4c(c3C2=O)CCCC4)c2ccccc21` (configuration not stated), the TGI in the test on ACHN renal was more than 100 µM; with UACC-257 melanoma it was more than 100 µM; in the test with SK-MEL-2 melanoma, more than 100 µM; in the test on DU-145 prostate, more than 100 µM; with SK-MEL-5 melanoma it was 84.7 µM.
